From ChEMBL document CHEMBL3885881, “DrugMatrix”

Species on record: Rattus norvegicus
Assay: DrugMatrix - Regimen: Daily Repeat
Assay type: toxicity, organism-based, Sprague-Dawley
Design: regimen Daily Repeat, gender Male, age 6-8 weeks
Settings: in vivo, po, route oral GAVAGE, vehicle 100 % WATER; for ABSOLUTE BASOPHIL / ABSOLUTE EOSINOPHIL / ABSOLUTE LYMPHOCYTE / ABSOLUTE MONOCYTE / ABSOLUTE SEGMENTED NEUTROPHIL / BASOPHIL / EOSINOPHIL / ERYTHROCYTE COUNT / HEMATOCRIT / HEMOGLOBIN / LEUKOCYTE COUNT / LYMPHOCYTE / MEAN CORPUSCULAR HEMOGLOBIN / MEAN CORPUSCULAR HEMOGLOBIN CONCENTRATION / MEAN CORPUSCULAR VOLUME / MONOCYTE / NEUTROPHIL / NUCLEATED RED BLOOD CELLS / PLATELET COUNT: tissue Blood; for ALANINE AMINOTRANSFERASE / ALBUMIN / ALKALINE PHOSPHATASE / ASPARTATE AMINOTRANSFERASE / BLOOD UREA NITROGEN / CARBON DIOXIDE / CHLORIDE / CHOLESTEROL / CREATINE PHOSPHOKINASE / CREATININE / GLUCOSE / LACTATE DEHYDROGENASE / LIPASE / PHOSPHORUS / POTASSIUM / SODIUM / TOTAL BILIRUBIN / TOTAL PROTEIN / URIC ACID: tissue Plasma
[1] = 0 mg/kg, 72 h, dose level Control, time 3 day
[2] = 0 mg/kg, 120 h, dose level Control, time 5 day
[3] = 30 mg/kg, 72 h, dose level Low, time 3 day

## CC1COc2c(N3CCN(C)CC3)c(F)cc3c(=O)c(C(=O)O)cn1c23 (centres undefined) [OFLOXACIN]
[1]
  ABSOLUTE BASOPHIL: 0 CELLS/uL
  ABSOLUTE EOSINOPHIL: 0 CELLS/uL
  ABSOLUTE LYMPHOCYTE: 10386.33 CELLS/uL
  ABSOLUTE MONOCYTE: 88.5 CELLS/uL
  ABSOLUTE SEGMENTED NEUTROPHIL: 1008.5 CELLS/uL
  BASOPHIL: 0%
  EOSINOPHIL: 0%
  ERYTHROCYTE COUNT: 5.16 x10E6/uL
  HEMATOCRIT: 32.43%
  HEMOGLOBIN: 12.98 G/DL
  LEUKOCYTE COUNT: 11.48 x10E3/uL
  LYMPHOCYTE: 92.33%
  MEAN CORPUSCULAR HEMOGLOBIN: 25.23 pg
  MEAN CORPUSCULAR HEMOGLOBIN CONCENTRATION: 40.08 G/DL
  MEAN CORPUSCULAR VOLUME: 62.95 fL
  MONOCYTE: 0.67%
  NEUTROPHIL: 7%
  NUCLEATED RED BLOOD CELLS: 0 /100WBC
  PLATELET COUNT: 1016.67 x10E3/uL
  ALANINE AMINOTRANSFERASE: 62.17 u/L
  ALBUMIN: 3.95 G/DL
  ALKALINE PHOSPHATASE: 363.5 u/L
  ASPARTATE AMINOTRANSFERASE: 118 u/L
  BLOOD UREA NITROGEN: 14.5 mg/dL
  CARBON DIOXIDE: 22.83 mmol/L
  CHLORIDE: 100.67 MEQ/L
  CHOLESTEROL: 66 mg/dL
  CREATINE PHOSPHOKINASE: 1308.83 u/L
  CREATININE: 0.22 mg/dL
  GLUCOSE: 187.5 mg/dL
  LACTATE DEHYDROGENASE: 380.17 u/L
  LIPASE: 16.17 u/L
  PHOSPHORUS: 14.27 mg/dL
  POTASSIUM: 6.8 MEQ/L
  SODIUM: 142.53 MEQ/L
  TOTAL BILIRUBIN: 0.2 mg/dL
  TOTAL PROTEIN: 5.68 G/DL
  URIC ACID: 2.87 mg/dL
[2]
  ABSOLUTE BASOPHIL: 0 CELLS/uL
  ABSOLUTE EOSINOPHIL: 80 CELLS/uL
  ABSOLUTE LYMPHOCYTE: 13301.33 CELLS/uL
  ABSOLUTE MONOCYTE: 180.83 CELLS/uL
  ABSOLUTE SEGMENTED NEUTROPHIL: 1187.83 CELLS/uL
  BASOPHIL: 0%
  EOSINOPHIL: 0.5%
  ERYTHROCYTE COUNT: 5.54 x10E6/uL
  HEMATOCRIT: 35.65%
  HEMOGLOBIN: 14.22 G/DL
  LEUKOCYTE COUNT: 14.75 x10E3/uL
  LYMPHOCYTE: 90.67%
  MEAN CORPUSCULAR HEMOGLOBIN: 25.65 pg
  MEAN CORPUSCULAR HEMOGLOBIN CONCENTRATION: 39.88 G/DL
  MEAN CORPUSCULAR VOLUME: 64.35 fL
  MONOCYTE: 1%
  NEUTROPHIL: 7.83%
  NUCLEATED RED BLOOD CELLS: 0.17 /100WBC
  PLATELET COUNT: 1285.33 x10E3/uL
  ALANINE AMINOTRANSFERASE: 51.67 u/L
  ALBUMIN: 4.08 G/DL
  ALKALINE PHOSPHATASE: 391.5 u/L
  ASPARTATE AMINOTRANSFERASE: 99.5 u/L
  BLOOD UREA NITROGEN: 15.5 mg/dL
  CARBON DIOXIDE: 28.33 mmol/L
  CHLORIDE: 101.83 MEQ/L
  CHOLESTEROL: 67.83 mg/dL
  CREATINE PHOSPHOKINASE: 771.33 u/L
  CREATININE: 0.23 mg/dL
  GLUCOSE: 156.5 mg/dL
  LACTATE DEHYDROGENASE: 544.33 u/L
  LIPASE: 10.17 u/L
  PHOSPHORUS: 12.03 mg/dL
  POTASSIUM: 6.81 MEQ/L
  SODIUM: 144.13 MEQ/L
  TOTAL BILIRUBIN: 0.22 mg/dL
  TOTAL PROTEIN: 6 G/DL
  URIC ACID: 2.18 mg/dL
[3]
  ABSOLUTE BASOPHIL: 0 CELLS/uL
  ABSOLUTE EOSINOPHIL: 95.33 CELLS/uL
  ABSOLUTE LYMPHOCYTE: 12358.67 CELLS/uL
  ABSOLUTE MONOCYTE: 136.33 CELLS/uL
  ABSOLUTE SEGMENTED NEUTROPHIL: 1043 CELLS/uL
  BASOPHIL: 0%
  EOSINOPHIL: 0.67%
  ERYTHROCYTE COUNT: 5.52 x10E6/uL
  HEMATOCRIT: 36.03%
  HEMOGLOBIN: 13.97 G/DL
  LEUKOCYTE COUNT: 13.63 x10E3/uL
  LYMPHOCYTE: 90.67%
  MEAN CORPUSCULAR HEMOGLOBIN: 25.4 pg
  MEAN CORPUSCULAR HEMOGLOBIN CONCENTRATION: 38.77 G/DL
  MEAN CORPUSCULAR VOLUME: 65.33 fL
  MONOCYTE: 1%
  NEUTROPHIL: 7.67%
  NUCLEATED RED BLOOD CELLS: 0 /100WBC
  PLATELET COUNT: 1082 x10E3/uL
  ALANINE AMINOTRANSFERASE: 46.67 u/L
  ALBUMIN: 4.03 G/DL
  ALKALINE PHOSPHATASE: 420.67 u/L
  ASPARTATE AMINOTRANSFERASE: 75 u/L
  BLOOD UREA NITROGEN: 13.33 mg/dL
  CARBON DIOXIDE: 28 mmol/L
  CHLORIDE: 100.33 MEQ/L
  CHOLESTEROL: 76.33 mg/dL
  CREATINE PHOSPHOKINASE: 165.33 u/L
  CREATININE: 0.19 mg/dL
  GLUCOSE: 159 mg/dL
  LACTATE DEHYDROGENASE: 114 u/L
  LIPASE: 10.67 u/L
  PHOSPHORUS: 13.07 mg/dL
  POTASSIUM: 6.69 MEQ/L
  SODIUM: 143.73 MEQ/L
  TOTAL BILIRUBIN: 0.2 mg/dL
  TOTAL PROTEIN: 5.87 G/DL
  URIC ACID: 1.23 mg/dL
